Patent publication US20240150321A1, “PYRAZOLYLSULFONAMIDE COMPOUNDS AND THEIR USE IN THERAPY” (HOTSPOT THERAPEUTICS, INC., priority 2022, published 2024)

Tests used:
Avi-tagged FL MALT-1 = Avi-tagged FL MALT-1 (Homo sapiens (Human), UniProt Q9UDY8); experiment: MALT-1 Fluorogenic Peptide Cleavage Assay (MALT1 inhibition assay); format: biochemical; settings: Ac-LRSR-AMC peptide substrate, 30 min pre-incubation, 90 min reaction at room temperature
Summary of the method: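 Cleavage of Ac-LRSR-AMC, read as fluorescence at 342/441 nm after 90 min at room temperature, with substrate working stocks of 50 μM (Km) or 280 μM (10×Km). Enzyme, Avi-tagged full-length MALT-1 (40 nM stock), was first pre-incubated 30 min with compound in citrate/HEPES pH 6.89 buffer with TCEP, EDTA, CHAPS and 2% DMSO; IC50 fitted from normalised % inhibition.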

[1] = system: NF-kB reporter in Jurkat cells; experiment: NF-kB reporter assay in Jurkat cells stimulated with aCD3/aCD28/PMA; format: cell-based; settings: Homo sapiens; Jurkat cells, 1 hr compound pre-incubation, aCD3/aCD28/PMA stimulation 4 hr, One-Glo readout; read-out: NF-kB Reporter Assay IC50
Summary of the method: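 Luminescence (One-Glo) from the NF-kB reporter yielded IC50 values. Stimulation lasted 4 h at 37° C with aCD3, aCD28 and PMA (final 5, 5 and 0.03 […]), after 1 h compound pre-exposure of 25,000 Jurkat cells per well in serum-free RPMI.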

Sequence of Avi-tagged FL MALT-1 (Q9UDY8 whole entry): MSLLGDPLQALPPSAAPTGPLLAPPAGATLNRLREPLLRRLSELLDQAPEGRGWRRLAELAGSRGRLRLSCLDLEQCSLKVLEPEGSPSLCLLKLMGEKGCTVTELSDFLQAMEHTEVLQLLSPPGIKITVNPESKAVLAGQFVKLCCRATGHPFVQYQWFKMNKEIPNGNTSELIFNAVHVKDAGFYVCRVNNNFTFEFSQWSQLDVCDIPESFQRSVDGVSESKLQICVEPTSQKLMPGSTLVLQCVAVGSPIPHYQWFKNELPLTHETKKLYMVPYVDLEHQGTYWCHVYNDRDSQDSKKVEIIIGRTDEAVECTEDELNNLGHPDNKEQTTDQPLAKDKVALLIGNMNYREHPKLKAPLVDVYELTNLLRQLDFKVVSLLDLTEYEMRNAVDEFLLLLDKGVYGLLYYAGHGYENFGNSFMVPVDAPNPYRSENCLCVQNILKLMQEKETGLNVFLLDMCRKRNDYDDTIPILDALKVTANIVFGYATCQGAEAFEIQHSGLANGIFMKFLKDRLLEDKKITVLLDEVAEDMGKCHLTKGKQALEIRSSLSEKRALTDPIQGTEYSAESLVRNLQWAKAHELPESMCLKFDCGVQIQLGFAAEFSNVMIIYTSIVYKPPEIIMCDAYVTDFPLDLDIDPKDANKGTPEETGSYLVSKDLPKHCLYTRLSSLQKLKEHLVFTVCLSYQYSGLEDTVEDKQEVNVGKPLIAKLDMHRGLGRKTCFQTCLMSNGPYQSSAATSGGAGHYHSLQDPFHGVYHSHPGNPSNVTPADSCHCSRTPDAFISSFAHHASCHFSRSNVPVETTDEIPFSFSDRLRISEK

| SMILES | IC50 (Avi-tagged FL MALT-1) [nM] | IC50 [1] [nM] |
| --- | --- | --- |
| Cn1ncc2cccc(NS(=O)(=O)c3cnn(-c4cc(C(C)(C)C#N)ccn4)c3)c21 [Compound I-382, 1-(4-(2-cyanopropan-2-yl)pyridin-2-yl)-N-(1-methyl-1H-indazol-7-yl)-1H-pyrazole-4-sulfonamide] | > 2500 | < 400 |
| COC1(c2ccnc(-n3cc(S(=O)(=O)Nc4cccc5cnn(C)c45)cn3)c2)CC(C)(C)C1 [Compound I-478, 1-(4-(1-methoxy-3,3-dimethylcyclobutyl)pyridin-2-yl)-N-(1-methyl-1H-indazol-7-yl)-1H-pyrazole-4-sulfonamide] | > 2500 | < 400 |
| COc1ncc2cnn(C)c2c1NS(=O)(=O)c1cnn(-c2cc(C(F)F)ccn2)c1 [Compound I-126, 1-[4-(difluoromethyl)pyridin-2-yl]-N-{6-methoxy-1-methylpyrazolo[4,3-c]pyridin-7-yl}pyrazole-4-sulfonamide] | ≤ 400 | < 400 |
| COc1ccc2cnn(C)c2c1NS(=O)(=O)c1cnn(-c2cc(N3CC4CC3C4)ccn2)c1 [Compound I-432, 1-(4-(2-azabicyclo[2.1.1]hexan-2-yl)pyridin-2-yl)-N-(6-methoxy-1-methyl-1H-indazol-7-yl)-1H-pyrazole-4-sulfonamide] | 400 to 1000 | < 400 |
| CCc1ccc2cnn(C)c2c1NS(=O)(=O)c1cnn(-c2ccc(OC)cn2)c1 [Compound I-42, N-(6-Ethyl-1-Methyl-1H-Indazol-7-yl)-1-(5-Methoxypyridin-2-yl)-1H-Pyrazole-4-Sulfonamide] | 400 to 1000 | 400 to 1000 |
| CN1C(=O)N(c2ccnc(-n3cc(S(=O)(=O)Nc4cccc5cnn(C)c45)cn3)c2)CC1(C)C [Compound I-332] | > 2500 | < 400 |
| Cn1ncc2cccc(NS(=O)(=O)c3cnn(-c4cc(C5(O)CC(F)(F)C5)ccn4)c3)c21 [Compound I-359] | > 2500 | < 400 |
